{"source": "patent US10034836B2", "about": "“Formulations of guanylate cyclase C agonists and methods of use” (SYNERGY PHARMACEUTICALS, INC., priority 2008, dated 2018)", "key": {"[1]": {"format": "in vitro ADME", "protocol": "FIG. 1B: Schematic representation of HPLC chromatographic analyses of SP-304 samples after incubation with SGF for 0 and 120 min, respectively. The arrows show the elution position of SP-304.\nThe stability of SP-304 in the presence of simulated gastric fluid (SGF) was determined by biological activity measurements and HPLC analyses (FIGS. 1A & 1B). SP-304 (final concentration of 8.5 mg/ml) was incubated in SGF (Proteose peptone (8.3 g/liter; Difco), D-Glucose (3.5 g/liter; Sigma), NaCl (2.05 g/liter; Sigma), KH2PO4 (0.6 g/liter; Sigma), CaCl2 (0.11 g/liter), KCl (0.37 g/liter; Sigma), Porcine bile (final 1× concentration 0.05 g/liter; Sigma) in PBS, Lysozyme (final 1× concentration 0.10 g/liter; Sigma) in PBS, Pepsin (final 1× concentration 0.0133 g/liter; Sigma) in PBS). SGF was made on the day of the experiment and the pH was adjusted to 2.0±0.1 using HCl or NaOH as necessary. After the pH adjustment, SGF is filter sterilized with 0.22 μm membrane filters. SP-304 (final concentration of 8.5 mg/ml) was incubated in SGF at 37° C. for 0, 15, 30, […] and 120 min, respectively, in triplicate aliquots. Following incubations, samples were snap frozen in dry ice then stored in a −80° C. freezer until assayed in duplicate.\nHere, aliquots of the two samples were analyzed by HPLC using a previously developed method for analyzing SP-304 peptide. […]"}, "cynomolgus monkeys [2]": {"tested_on": "cynomolgus monkeys", "assay": "Repeated oral dose toxicity study of SP-304 in cynomolgus monkeys (14 days)", "format": "in vivo", "protocol": "The primary purpose of this experiment was to evaluate the toxicity and pharmacokinetics of a repeated oral dose of SP-304 in cynomolgus monkeys. […] Monkeys returned to normal stool consistency within 24-48 hours following the last dose of SP-304."}, "[3]": {"tested_on": "healthy male and female subjects", "assay": "Phase 1 single ascending oral dose study, safety and tolerability", "settings": "healthy volunteers"}, "cynomolgus monkeys [4]": {"tested_on": "cynomolgus monkeys", "assay": "Repeated daily oral dose for 28 days in cynomolgus monkeys, stool consistency", "settings": "cynomolgus monkey, in vivo, 10 mg/kg", "protocol": "FIG. 19: Determination of SP-304 dose that produced diarrhea in monkeys. Two groups of monkeys, male and female, were treated with a single dose of SP-304 per day continuously for 28 days (for each group, 0 and 75 mg/kg, n=5; 1, 10 mg/kg, n=4). Stool consistency and bowel frequency were noted every day. Results are presented as cumulative score for 28 days. The scoring used for stool consistency was as follows: 0: No stool, 1: Normal stool, 2: Loose/mushy stool and 3: Diarrhea/watery stool.\nMale (n=4) and female (n=4) monkeys were given a daily dose (1 or 10 or 75 mg/kg body weight) of SP-304 repeatedly for 28 days. Effect of treatment on stool consistency was recorded three times a day. […] Therefore, SP-304 was used at 10 mg/kg body weight in the subsequent experiments."}}, "note": "Where a SMILES comes first, the peptide text is derived from it. Bridges are numbered along the chain shown (N, C = ends)."}
{"smiles": "CC(C)C[C@H](NC(=O)[C@@H]1CSSC[C@@H]2NC(=O)[C@H](CC(C)C)NC(=O)[C@H](CCC(=O)O)NC(=O)[C@@H](NC(=O)[C@H](CCC(=O)O)NC(=O)[C@H](CC(=O)O)NC(=O)[C@@H](N)CC(N)=O)CSSC[C@H](NC(=O)[C@H](C)NC(=O)[C@H](C(C)C)NC(=O)[C@H](CC(N)=O)NC(=O)[C@H](C(C)C)NC2=O)C(=O)N[C@@H]([C@@H](C)O)C(=O)NCC(=O)N1)C(=O)O", "note": "[SP-304, Asn^1-Asp^2-Glu^3-Cys^4-Glu^5-Leu^6-Cys^7-Val^8-Asn^9-Val^10-Ala^11-Cys^12-Thr^13-Gly^14-Cys^15-Leu^16] (H-NDECELCVNVACTGCL-OH; disulfide 4-12, 7-15)", "values": [{"measurement": "major HPLC peak following incubation with SGF", "setting": "[1]", "result": "did not change"}, {"measurement": "time to return to normal stool consistency following the last dose", "setting": "cynomolgus monkeys [2]; cynomolgus monkey, in vivo", "result": "24 to 48", "unit": "h"}, {"measurement": "tolerability of repeated oral dose", "setting": "cynomolgus monkeys [2]; daily dose of 250 mg for 14 consecutive days, cynomolgus monkeys", "result": "well tolerated"}, {"measurement": "severe adverse events (SAEs)", "setting": "[3]; 0.1 to 48.6 mg single oral dose", "result": "no severe adverse events"}, {"measurement": "tolerability of single oral dose", "setting": "[3]; 0.1 to 48.6 mg", "result": "well-tolerated"}, {"measurement": "effect on stool consistency in females", "setting": "cynomolgus monkeys [4]", "result": "severe diarrhea consistently"}]}
